Where two headings read alike, the source gives them in different places.
Legend:
[1] = molecular target: Ec_PhnD; conditions: intrinsic fluorescence, read-out: Dissociation constant (KD); cited from earlier work
[2] = molecular target: Ec_PhnD; conditions: ITC, dash = binding not detected, read-out: Dissociation constant (KD); cited from earlier work
[3] = tested on: Synechococcus MITS9220; assay type: cell-based
Procedure: (§1) For treatment conditions containing alternative P compounds, 50 µM NaH2PO4 was replaced with 50 µM phosphite (Na2HPO3·5H2O) or methylphosphonate. In P-deplete media, an equal volume of water was added instead of a P compound. Experimental cultures were started from mid-logarithmic cultures grown in phosphate-containing PCR-S11 media. A small inoculum (~100 µL) was used to minimise the transfer of phosphate from stock cultures. Four biological replicates were tested for each experimental condition. Growth was regularly monitored via cell counts using a CytoFLEX S flow cytometer. […] Phosphate concentration in all treatment conditions was monitored regularly for the duration of the experiments using a Phosphate Colorimetric kit following the manufacturer’s instructions (Sigma-Aldrich) with a detection limit of 0.5 µM.

[4] = tested on: Synechococcus WH8102; assay type: cell-based
Procedure: as §1

[5] = tested on: Prochlorococcus MIT9313; conditions: cited from earlier work
[6] = tested on: Prochlorococcus MED4; conditions: cited from earlier work
[7] = molecular target: CC9311_PhnD1; assay type: binding, Synechococcus sp. CC9311; conditions: read-out: Dissociation constant (KD)
[8] = molecular target: WH8102_PhnD1 (Parasynechococcus marenigrum, UniProt Q7U716); assay type: binding, Synechococcus sp. WH8102; conditions: read-out: Dissociation constant (KD)
WH8102_PhnD1, sequence (Q7U716 27-306 limits assumed): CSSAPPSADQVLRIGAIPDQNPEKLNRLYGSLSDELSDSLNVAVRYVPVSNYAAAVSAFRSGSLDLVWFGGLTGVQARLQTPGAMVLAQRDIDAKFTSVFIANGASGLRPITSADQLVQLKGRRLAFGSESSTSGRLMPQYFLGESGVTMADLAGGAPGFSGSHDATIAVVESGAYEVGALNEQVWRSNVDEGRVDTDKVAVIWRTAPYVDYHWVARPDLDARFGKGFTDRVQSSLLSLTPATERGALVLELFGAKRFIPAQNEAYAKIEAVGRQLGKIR

[9] = molecular target: Pm_PtxB; conditions: read-out: Dissociation constant (KD); cited from earlier work
[10] = tested on: Prochlorococcus MIT9301; conditions: cited from earlier work

In the case of NCCP(=O)(O)O [2-AEP, 2-aminoethylphosphonate], the Kd [1] is given as under 50 nM and the Kd [2] is given as 100 nM.
For O=P(O)(O)O [Pi, inorganic phosphate], the “Growth as sole P source” value ([3]; 50 µM P source, PCR-S11 medium, cell density by flow cytometry) is given as “growth seen”, the “Growth as sole P source” value ([4]; 50 µM P source, PCR-S11 medium, cell density by flow cytometry, 49 days) is given as “growth seen” and the “Growth and utilisation of P source” value [5] is given as “only able to utilise Pi for their growth”. For the same compound, the “Growth and utilisation of P source” value [6] was “only able to utilise Pi for their growth”.
In the case of phosphite [Pt], the Kd [7] is reported as 1700 ± 900 nM, the Kd [8] is reported as 4300 ± 500 nM and the “Growth as sole P source” value [3] is reported as “do not exhibit a clearly defined exponential growth”. The “Growth as sole P source” value [4] was “do not exhibit a clearly defined exponential growth”, the Kd [9] was 2000 nM and the “Use as sole P source to support growth” value [10] was “can use Pt or MPn as the sole P source to support its growth”. The “Growth and utilisation of P source” value [5] was “unable to grow and utilise” and the “Growth and utilisation of P source” value [6] was “unable to grow and utilise”.

— article PMC10284923 (The ISME Journal, 2023)
